Test system: crypt cells of the colon of HFA mice
Test: DNA chip showing specific responses to human intestinal normal bacterial flora, colistin-treated HFA mice
Conditions: 500 μg/Ml in drinking water three weeks
[1] = colon crypt cells, then halted one week

Text: The colon is collected and the gene expression of crypt cells obtained from the colon is compared with the control group (HFA mice).
In other words, the material or the food is orally administered to HFA mice, which are autopsied along with control HFA mice not having been administered. The crypt cells of the colon are collected to separate RNA. Next, the separated RNA is amplified and Cy3 fluorescence material is labelled on the genes of HFA mice and Cy5 fluorescence material is labelled on the genes of the administered group to react with the gene chip which is a product of the present invention to get the difference of expressions of the 90 genes.
RNA is collected and amplified from the crypt cells of the colon to manufacture a DNA chip, which is reacted with RNA of HFA mice being the control group. The degree of expressing genes and the change of composition of intestinal normal bacterial flora of the colon and the activity of the enzymes produced by the human intestinal bacterial flora such as glucuomidase, glucosidase, nitrate reductase and azoreductase are investigated and used as an index showing the disruption of the human intestinal normal bacterial flora.

colistin sulfate
Disruption of the human intestinal normal bacterial flora, recovery after stop of administration (one week after stop): not recovered in one week after the administration of colistin is stopped
Number of genes in total showing a difference by more than 1.5 times in comparison with the control group (then halted one week): 38 genes
Number of the 90 genes with the same tendency of increase and decrease as observed when the flora is disturbed (then halted one week): 25 genes
1110037F02Rik gene expression HFA-Coli/HFA [1]: 13.33
1110037F02Rik gene expression, HFA-Coli [1]: 133.2
1110038M16Rik gene expression HFA-Coli/HFA [1]: 1.355
1110038M16Rik gene expression, HFA-Coli [1]: 195.8
1700012H17Rik gene expression HFA-Coli/HFA [1]: 0.969
1700012H17Rik gene expression, HFA-Coli [1]: 594.0
2610529I12Rik gene expression HFA-Coli/HFA [1]: 1.049
2610529I12Rik gene expression, HFA-Coli [1]: 1108
4732481h14Rik gene expression HFA-Coli/HFA [1]: 0.750
4732481h14Rik gene expression, HFA-Coli [1]: 209.2
4930455F23Rik gene expression HFA-Coli/HFA [1]: 0.851
4930455F23Rik gene expression, HFA-Coli [1]: 634.5
5031404N19 gene expression HFA-Coli/HFA [1]: 0.956
5031404N19 gene expression, HFA-Coli [1]: 444.2
5430437F03Rik gene expression HFA-Coli/HFA [1]: 1.826
5430437F03Rik gene expression, HFA-Coli [1]: 485.8
6330590F17Rik gene expression HFA-Coli/HFA [1]: 1.341
6330590F17Rik gene expression, HFA-Coli [1]: 84.50
9830148O20Rik gene expression HFA-Coli/HFA [1]: 1.400
9830148O20Rik gene expression, HFA-Coli [1]: 815.0
Alas1 gene expression HFA-Coli/HFA [1]: 1.857
Alas1 gene expression, HFA-Coli [1]: 577.0
Aldh6a1 gene expression HFA-Coli/HFA [1]: 0.971
Aldh6a1 gene expression, HFA-Coli [1]: 286.5
Au043625 gene expression HFA-Coli/HFA [1]: 1.167
Au043625 gene expression, HFA-Coli [1]: 336.5
Bnip3l gene expression HFA-Coli/HFA [1]: 1.753
Bnip3l gene expression, HFA-Coli [1]: 729.5
C130039O16 gene expression HFA-Coli/HFA [1]: 1.160
C130039O16 gene expression, HFA-Coli [1]: 680.0
CPd gene expression HFA-Coli/HFA [1]: 0.848
CPd gene expression, HFA-Coli [1]: 587.8
Cacnb3 gene expression HFA-Coli/HFA [1]: 0.649
Cacnb3 gene expression, HFA-Coli [1]: 661.2
Cav gene expression HFA-Coli/HFA [1]: 1.029
Cav gene expression, HFA-Coli [1]: 206.0
Ccnd2 gene expression HFA-Coli/HFA [1]: 0.839
Ccnd2 gene expression, HFA-Coli [1]: 315.5
Cdc45l gene expression HFA-Coli/HFA [1]: 1.652
Cdc45l gene expression, HFA-Coli [1]: 100.8
Cited1 gene expression HFA-Coli/HFA [1]: 1.222
Cited1 gene expression, HFA-Coli [1]: 289.0
Ckap2 gene expression HFA-Coli/HFA [1]: 1.661
Ckap2 gene expression, HFA-Coli [1]: 548.0
Cldn8 gene expression HFA-Coli/HFA [1]: 1.195
Cldn8 gene expression, HFA-Coli [1]: 406.5
Col3a1 gene expression HFA-Coli/HFA [1]: 2.136
Col3a1 gene expression, HFA-Coli [1]: 441.0
Cotl11 gene expression HFA-Coli/HFA [1]: 1.883
Cotl11 gene expression, HFA-Coli [1]: 1227
Crem gene expression HFA-Coli/HFA [1]: 0.890
Crem gene expression, HFA-Coli [1]: 355.8
Crsp7 gene expression HFA-Coli/HFA [1]: 2.045
Crsp7 gene expression, HFA-Coli [1]: 1218
Cul4b gene expression HFA-Coli/HFA [1]: 1.715
Cul4b gene expression, HFA-Coli [1]: 91.75
D230019K24Rik gene expression HFA-Coli/HFA [1]: 2.598
D230019K24Rik gene expression, HFA-Coli [1]: 142.2
Daf1 gene expression HFA-Coli/HFA [1]: 2.085
Daf1 gene expression, HFA-Coli [1]: 419.0
Dap3 gene expression HFA-Coli/HFA [1]: 1.274
Dap3 gene expression, HFA-Coli [1]: 634.5
Dcamkl1 gene expression HFA-Coli/HFA [1]: 0.679
Dcamkl1 gene expression, HFA-Coli [1]: 615.2
Ddx1 gene expression HFA-Coli/HFA [1]: 1.094
Ddx1 gene expression, HFA-Coli [1]: 370.0
Eif2ak3 gene expression HFA-Coli/HFA [1]: 1.274
Eif2ak3 gene expression, HFA-Coli [1]: 685.0
Epc1 gene expression HFA-Coli/HFA [1]: 1.452
Epc1 gene expression, HFA-Coli [1]: 228.8
Fads3 gene expression HFA-Coli/HFA [1]: 1.422
Fads3 gene expression, HFA-Coli [1]: 409.2
Fn3k gene expression HFA-Coli/HFA [1]: 0.785
Fn3k gene expression, HFA-Coli [1]: 415.5
Gmnn gene expression HFA-Coli/HFA [1]: 0.997
Gmnn gene expression, HFA-Coli [1]: 673.8
Gstm2 gene expression HFA-Coli/HFA [1]: 0.944
Gstm2 gene expression, HFA-Coli [1]: 164.8
Guca1a gene expression HFA-Coli/HFA [1]: 1.553
Guca1a gene expression, HFA-Coli [1]: 417.0
Hdac5 gene expression HFA-Coli/HFA [1]: 0.949
Hdac5 gene expression, HFA-Coli [1]: 473.8
Hsd17b2 gene expression HFA-Coli/HFA [1]: 1.453
Hsd17b2 gene expression, HFA-Coli [1]: 1737
Igj gene expression HFA-Coli/HFA [1]: 0.888
Igj gene expression, HFA-Coli [1]: 210.5
Il16 gene expression HFA-Coli/HFA [1]: 1.470
Il16 gene expression, HFA-Coli [1]: 568.0
Il18 gene expression HFA-Coli/HFA [1]: 1.094
Il18 gene expression, HFA-Coli [1]: 531.5
Ipo4 gene expression HFA-Coli/HFA [1]: 2.566
Ipo4 gene expression, HFA-Coli [1]: 140.5
Keap1 gene expression HFA-Coli/HFA [1]: 0.687
Keap1 gene expression, HFA-Coli [1]: 564.0
Klf3 gene expression HFA-Coli/HFA [1]: 0.764
Klf3 gene expression, HFA-Coli [1]: 195.8
Lnx1 gene expression HFA-Coli/HFA [1]: 0.171
Lnx1 gene expression, HFA-Coli [1]: 98.25
Lrp10 gene expression HFA-Coli/HFA [1]: 2.132
Lrp10 gene expression, HFA-Coli [1]: 1648
Mcpt4 gene expression HFA-Coli/HFA [1]: 1.505
Mcpt4 gene expression, HFA-Coli [1]: 181.8
Mllt1 gene expression HFA-Coli/HFA [1]: 0.781
Mllt1 gene expression, HFA-Coli [1]: 502.8
Mpp1 gene expression HFA-Coli/HFA [1]: 0.874
Mpp1 gene expression, HFA-Coli [1]: 638.0
Mt-1 gene expression HFA-Coli/HFA [1]: 3.610
Mt-1 gene expression, HFA-Coli [1]: 2033
Mtmr7 gene expression HFA-Coli/HFA [1]: 2.084
Mtmr7 gene expression, HFA-Coli [1]: 173.0
Mut gene expression HFA-Coli/HFA [1]: 1.238
Mut gene expression, HFA-Coli [1]: 999.5
Ncoa6 gene expression HFA-Coli/HFA [1]: 3.070
Ncoa6 gene expression, HFA-Coli [1]: 374.5
Npm1 gene expression HFA-Coli/HFA [1]: 1.840
Npm1 gene expression, HFA-Coli [1]: 350.0
Parva gene expression HFA-Coli/HFA [1]: 1.330
Parva gene expression, HFA-Coli [1]: 153.0
Per1 gene expression HFA-Coli/HFA [1]: 1.227
Per1 gene expression, HFA-Coli [1]: 803.5
Plp gene expression HFA-Coli/HFA [1]: 1.232
Plp gene expression, HFA-Coli [1]: 2108
Prkrir gene expression HFA-Coli/HFA [1]: 0.644
Prkrir gene expression, HFA-Coli [1]: 510.0
Ptgs1 gene expression HFA-Coli/HFA [1]: 2.280
Ptgs1 gene expression, HFA-Coli [1]: 2454
Ptgs2 gene expression HFA-Coli/HFA [1]: 1.721
Ptgs2 gene expression, HFA-Coli [1]: 423.8
Purb gene expression HFA-Coli/HFA [1]: 2.438
Purb gene expression, HFA-Coli [1]: 527.8
Rab6ip1 gene expression HFA-Coli/HFA [1]: 2.725
Rab6ip1 gene expression, HFA-Coli [1]: 203.0
Rgs12 gene expression HFA-Coli/HFA [1]: 1.395
Rgs12 gene expression, HFA-Coli [1]: 152.8
Rhcg gene expression HFA-Coli/HFA [1]: 1.572
Rhcg gene expression, HFA-Coli [1]: 286.5
Rnf12 gene expression HFA-Coli/HFA [1]: 1.234
Rnf12 gene expression, HFA-Coli [1]: 72.50
Rpa1 gene expression HFA-Coli/HFA [1]: 1.626
Rpa1 gene expression, HFA-Coli [1]: 353.8
Rpl27 gene expression HFA-Coli/HFA [1]: 1.021
Rpl27 gene expression, HFA-Coli [1]: 1768
Rwl-pending gene expression HFA-Coli/HFA [1]: 1.623
Rwl-pending gene expression, HFA-Coli [1]: 490.5
Serping1 gene expression HFA-Coli/HFA [1]: 1.113
Serping1 gene expression, HFA-Coli [1]: 153.0
Sh3glb2 gene expression HFA-Coli/HFA [1]: 1.081
Sh3glb2 gene expression, HFA-Coli [1]: 578.0
Siat9 gene expression HFA-Coli/HFA [1]: 1.010
Siat9 gene expression, HFA-Coli [1]: 1439
Slc22a1l gene expression HFA-Coli/HFA [1]: 1.054
Slc22a1l gene expression, HFA-Coli [1]: 1671
Slc26a1 gene expression HFA-Coli/HFA [1]: 1.302
Slc26a1 gene expression, HFA-Coli [1]: 203.5
Srpk2 gene expression HFA-Coli/HFA [1]: 0.480
Srpk2 gene expression, HFA-Coli [1]: 312.2
Tacc2 gene expression HFA-Coli/HFA [1]: 2.279
Tacc2 gene expression, HFA-Coli [1]: 179.5
Tccr gene expression HFA-Coli/HFA [1]: 0.821
Tccr gene expression, HFA-Coli [1]: 682.0
Tcl1 gene expression HFA-Coli/HFA [1]: 1.688
Tcl1 gene expression, HFA-Coli [1]: 290.2
Tcp11 gene expression HFA-Coli/HFA [1]: 1.222
Tcp11 gene expression, HFA-Coli [1]: 536.5
Thsd1 gene expression HFA-Coli/HFA [1]: 1.373
Thsd1 gene expression, HFA-Coli [1]: 477.8
Tiam2 gene expression HFA-Coli/HFA [1]: 7.565
Tiam2 gene expression, HFA-Coli [1]: 160.8
Tnfsf13b gene expression HFA-Coli/HFA [1]: 2.153
Tnfsf13b gene expression, HFA-Coli [1]: 256.8
Tuba4 gene expression HFA-Coli/HFA [1]: 1.623
Tuba4 gene expression, HFA-Coli [1]: 799.2
Ugcg gene expression HFA-Coli/HFA [1]: 0.625
Ugcg gene expression, HFA-Coli [1]: 1158
Usp15 gene expression HFA-Coli/HFA [1]: 1.355
Usp15 gene expression, HFA-Coli [1]: 85.00
Ybx2 gene expression HFA-Coli/HFA [1]: 1.478
Ybx2 gene expression, HFA-Coli [1]: 164.8
Zdhhc3 gene expression HFA-Coli/HFA [1]: 1.710
Zdhhc3 gene expression, HFA-Coli [1]: 357.8
